# Results published in ChEMBL document CHEMBL5325471, “Identification of new modulator of DNA repairing pathways based on natural product (±)-peharmaline A” (Bioorg Med Chem, 2023).
# How the values were obtained:
# [1] = Cytotoxicity against human fR2 cells assessed as cell growth inhibition incubated for 44 hrs by MTT assay; assay type: toxicity, cell-based
# HCT-116 = test: Antiproliferative activity against human HCT-116 cells assessed as cell growth inhibition incubated for 44 hrs by MTT assay; assay type: functional, cell-based; details: HCT-116, 44 h
# PC-3 [2] = test: Antiproliferative activity against human PC-3 cells assessed as cell growth inhibition incubated for 44 hrs by MTT assay; assay type: functional, cell-based; details: PC-3, 44 h
# MCF7 = test: Antiproliferative activity against human MCF7 cells assessed as cell growth inhibition incubated for 44 hrs by MTT assay; assay type: functional, cell-based; details: MCF7, 44 h
# A549 = test: Antiproliferative activity against human A549 cells assessed as cell growth inhibition incubated for 44 hrs by MTT assay; assay type: functional, cell-based; details: A549, 44 h
# SGC-7901 = test: Cytotoxicity against human SGC-7901 cells; assay type: functional, cell-based
# PC-3 [3] = test: Cytotoxicity against human PC-3 cells; assay type: functional, cell-based
# HL-60 = test: Cytotoxicity against human HL-60 cells; assay type: functional, cell-based
IC50 (HCT-116),IC50 (PC-3 [2]),IC50 (MCF7),IC50 (A549),SMILES,IC50 at 44 h [1],IC50 (SGC-7901),IC50 (PC-3 [3]),IC50 (HL-60)
3 µM,13.5 µM,4.51 µM,0.845 µM,COC(=O)[C@]1([C@H]2CCN(C(=O)c3ccc(C(F)(F)F)cc3Cl)C2=O)NCCc2c1[nH]c1ccccc21 (racemic),39.2 µM,,,
> 100 µM,> 100 µM,> 100 µM,> 100 µM,COC(=O)[C@]1([C@H]2CCN(C(=O)c3ccc(Cl)cc3[N+](=O)[O-])C2=O)NCCc2c1[nH]c1ccccc21 (racemic),> 100 µM,,,
19.7 µM,> 100 µM,> 100 µM,20.4 µM,COC(=O)[C@]1([C@H]2CCN(C(=O)c3ccc(Cl)cc3)C2=O)NCCc2c1[nH]c1ccccc21 (racemic),> 100 µM,,,
8.65 µM,5.96 µM,6.96 µM,6.45 µM,COC(=O)[C@]1([C@H]2CCN(C(=O)c3ccccc3F)C2=O)NCCc2c1[nH]c1ccccc21 (racemic),> 100 µM,,,
5.34 µM,43.7 µM,47.7 µM,5.21 µM,COC(=O)[C@]1([C@H]2CCCN(C(=O)c3ccccc3Cl)C2=O)NCCc2c1[nH]c1ccccc21 (racemic),> 100 µM,,,
3.92 µM,6.23 µM,8.12 µM,3.37 µM,COC(=O)[C@]1([C@H]2CCN(C(=O)c3ccccc3Br)C2=O)NCCc2c1[nH]c1ccccc21 (racemic),89.8 µM,,,
4.12 µM,2.39 µM,1.62 µM,1.12 µM,COC(=O)[C@]1([C@H]2CCN(C(=O)c3ccccc3Cl)C2=O)NCCc2c1[nH]c1ccccc21 (racemic),20 µM,,,
11.2 µM,59.7 µM,> 100 µM,16.3 µM,COC(=O)[C@]1([C@H]2CCN(C(=O)c3ccc(C)cc3C)C2=O)NCCc2c1[nH]c1ccccc21 (racemic),> 100 µM,,,
5.76 µM,7.02 µM,8.36 µM,5.02 µM,COC(=O)[C@]1([C@H]2CCN(C(=O)c3ccccc3I)C2=O)NCCc2c1[nH]c1ccccc21 (racemic),> 100 µM,,,
8.79 µM,11.1 µM,8.36 µM,10.8 µM,COC(=O)[C@]1([C@H]2CCN(C(=O)c3ccc(Cl)cc3Cl)C2=O)NCCc2c1[nH]c1ccccc21 (racemic),> 100 µM,,,

# Second part, the molecule before the results:
SMILES,IC50 (HCT-116),IC50 (PC-3 [2]),IC50 (MCF7),IC50 (A549),IC50 at 44 h [1],IC50 (SGC-7901),IC50 (PC-3 [3]),IC50 (HL-60)
COC(=O)[C@]1([C@H]2CCNC2=O)NCCc2c1[nH]c1ccccc21,25.6 µM,75.1 µM,> 100 µM,39.8 µM,> 100 µM,,,
COC(=O)[C@]1([C@H]2CCN(C(=O)c3ccccc3[N+](=O)[O-])C2=O)NCCc2c1[nH]c1ccccc21,> 100 µM,> 100 µM,51.3 µM,> 100 µM,> 100 µM,,,
COC(=O)[C@]1([C@H]2CCN(C(=O)c3ccccc3[N+](=O)[O-])C2=O)NCCc2c1[nH]c1cc(OC)ccc21,6.19 µM,31 µM,16.1 µM,12.7 µM,17.8 µM,,,
COC(=O)[C@@H]1Cc2c([nH]c3ccccc23)[C@@](C(=O)OC)([C@H]2CCNC2=O)N1,27.4 µM,> 100 µM,> 100 µM,20.4 µM,> 100 µM,,,
COC(=O)[C@]1([C@H]2CCNC2=O)NCCc2c1[nH]c1cc(OC)ccc21,> 100 µM,> 100 µM,81.6 µM,16.6 µM,> 100 µM,,,
COC(=O)[C@]1([C@H]2CCCCn3c2nc2ccccc2c3=O)NCCc2c1[nH]c1ccccc21,5.35 µM,6.47 µM,6.95 µM,7.91 µM,35.6 µM,,,
COC(=O)[C@]1([C@@H]2CCNC2=O)NCCc2c1[nH]c1cc(OC)ccc21,7.48 µM,91.7 µM,> 100 µM,> 100 µM,> 100 µM,,,
COC(=O)[C@@H]1Cc2c([nH]c3ccccc23)[C@@](C(=O)OC)([C@H]2CCCn3c2nc2ccccc2c3=O)N1,6.26 µM,13 µM,6.2 µM,10.4 µM,33.2 µM,,,
COC(=O)[C@]1([C@H]2CCCN(C(=O)c3ccccc3[N+](=O)[O-])C2=O)NCCc2c1[nH]c1ccccc21,42.2 µM,> 100 µM,51.2 µM,39.1 µM,> 100 µM,,,
COC(=O)[C@]1([C@H]2CCCNC2=O)NCCc2c1[nH]c1ccccc21,> 100 µM,35 µM,> 100 µM,> 100 µM,> 100 µM,,,
COC(=O)[C@@H]1Cc2c([nH]c3ccccc23)[C@@](C(=O)OC)([C@H]2CCCN(C(=O)c3ccccc3[N+](=O)[O-])C2=O)N1,> 100 µM,> 100 µM,> 100 µM,19.4 µM,> 100 µM,,,
COC(=O)[C@]1([C@H]2CCCn3c2nc2ccccc2c3=O)NCCc2c1[nH]c1ccccc21,4.15 µM,4.95 µM,3.28 µM,6.88 µM,93.6 µM,,,
COC(=O)[C@]1([C@H]2CCCCN(C(=O)c3ccccc3[N+](=O)[O-])C2=O)NCCc2c1[nH]c1ccccc21,15.1 µM,36.5 µM,7.43 µM,35.8 µM,30.2 µM,,,
COC(=O)[C@]1([C@H]2CCCCNC2=O)NCCc2c1[nH]c1ccccc21,> 100 µM,> 100 µM,93.3 µM,> 100 µM,> 100 µM,,,
COC(=O)[C@]1([C@H]2CCN(C(=O)C3CCC3)C2=O)NCCc2c1[nH]c1ccccc21 (racemic),25.6 µM,> 100 µM,> 100 µM,23.7 µM,> 100 µM,,,
COC(=O)[C@]1([C@H]2CCn3c2nc2ccccc2c3=O)NCCc2c1[nH]c1cc(OC)ccc21 (racemic),15.4 µM,12.2 µM,6.22 µM,5.24 µM,17.9 µM,25.4 µM,21.6 µM,9.2 µM
COC(=O)[C@]1([C@H]2CCN(C(=O)c3ccc(C)cc3[N+](=O)[O-])C2=O)NCCc2c1[nH]c1ccccc21 (racemic),> 100 µM,> 100 µM,> 100 µM,16.3 µM,> 100 µM,,,
CCOC(=O)[C@]1([C@H]2CCN(C(=O)c3ccccc3[N+](=O)[O-])C2=O)NCCc2c1[nH]c1ccccc21 (racemic),> 100 µM,> 100 µM,28.1 µM,10.7 µM,> 100 µM,,,
COC(=O)[C@]1([C@H]2CCN(C(=O)c3ccccc3)C2=O)NCCc2c1[nH]c1ccccc21 (racemic),16.4 µM,> 100 µM,> 100 µM,17.3 µM,> 100 µM,,,
CCOC(=O)[C@]1([C@H]2CCNC2=O)NCCc2c1[nH]c1ccccc21 (racemic),> 100 µM,> 100 µM,> 100 µM,> 100 µM,> 100 µM,,,
COC(=O)[C@]1([C@H]2CCN(C(=O)c3ccc(F)cc3)C2=O)NCCc2c1[nH]c1ccccc21 (racemic),10.1 µM,17 µM,> 5.04 µM,7.8 µM,35.8 µM,,,
COC(=O)[C@]1([C@H]2CCN(C(=O)c3cccs3)C2=O)NCCc2c1[nH]c1ccccc21 (racemic),14 µM,94.4 µM,15.9 µM,17.9 µM,39.2 µM,,,
CCOC(=O)[C@]1([C@H]2CCN(C(=O)c3ccccc3Cl)C2=O)NCCc2c1[nH]c1ccccc21 (racemic),55.8 µM,22.8 µM,20.4 µM,72.8 µM,84 µM,,,
